# Laboratory results taken from patent US20090117199A1, “Method of treatment of cancer” (priority 1998, published 2009).
# Entries after “also recorded” stand apart in the source; their conditions may differ. Where two headings read alike, the source gives them in different places.
# What was measured:
# Murine Hepa 1-6 tumors = test: Tumor response to IL 10% RB in saline, report 051016.02B; type: in vivo, BALB/c Nude Mice; conditions: 10% RB 45 μL/tumor Qd × 1
# [1] = cited from earlier work
# [2] = Partitioning coefficient of Rose Bengal, saline/1-octanol, effect of electrolyte concentration; conditions: 0.5 mg/mL RB, approx. 1 day; for Kp: Partitioning coefficient (Kp)
# Description: After mixing, the agent was allowed to partition for approximately 1 day. Based on absorbance measurements at 550 nm for the aqueous phase and 564 nm for the organic phase, the percentage of agent in each phase was obtained.
# [3] = tested on: melanoma lesions (stage III or IV metastatic melanoma); test: Human trial, single IL injection of 10% RB solution in unbuffered saline
# [4] = Critical solubility of Rose Bengal in saline (cloudiness, absorbance at 1000 nm); type: physicochemical
# Description: Solutions of RB at different concentrations were prepared at different sodium chloride concentrations. Saline 0.9% USP sodium chloride solution from Hospira, having a pH of 5.5, was used as a stock solution. Solutions having different sodium chloride concentrations were obtained by the addition of calculated amounts of sodium chloride.
# The prepared RB/sodium chloride solutions were shaken for 1 hour and absorbance measurements were taken at 1000 nm to determine cloudiness. 1000 nm was chosen as this is in the near infra red where RB has negligible absorbance. Solution cloudiness was difficult to detect visually due to the very dark red color.
# The following solutions were evaluated: • 1. 20% RB in saline concentrations of 1.0%, 1.5%, 1.6%, 1.7%, 1.8%, 1.9%, 2.0%, 2.5%, 2.6%, 2.7% and 2.9%; • 2. 15% RB in saline concentrations of […]; • 3. 10% RB in saline concentrations of 2.0%, 2.5%, 3.0% and 3.2%; and • 4. 40%, 45%, 50%, 55% and 60% solutions of RB in 0.9% saline.
# cancer cells = conditions: essentially excluded from normal cells; cited from earlier work
# MCF-7 [ER+] tumors = test: Tumor response to IL 10% RB in saline, report 020110.01B; type: in vivo, BALB/c Nude Mice; conditions: 10% RB IL 25-50 μL/tumor Qd × 1; within 21 days; 4/group
# [5] = tested on: A375 human melanoma xenograft tumors; conditions: for #CR + #PR/SD (%): number (percent); for MST ± SEM (mean survival time to 2.0 g tumor): single injection
# Description: The effects of a single IL injection of RB into A375 human melanoma xenograft tumors growing in nude mice were evaluated.
# Chemoablation studies were conducted using female nu/nu mice (Harlan), 6-9 weeks of age and approximately 20 g at study Day 1.
# Each mouse in Chemoablation study groups received a single subcutaneous implantation of the A375 melanoma tumor line. This consisted of implantation of either (1) a 1 mm^3 fragment of tissue in the flank or (2) subcutaneous injection of 100 μL of an A375 cell suspension into the flank. Treatment was initiated when the implanted tumor reached a size of approximately 70 mg (where tumor weight, in mg, was estimated using the formula (w^2×l)/2 in which w is width, and l is length in mm of the tumor).
# RB (Aldrich product No. W1843) in isotonic saline; concentrations of 0.1% RB, 1%, RB, 1%, RB, 6% RB and 10% RB (w/v) was studied. Saline was used for the injection control group.
# Treatment Plan: Mice were divided into treatment groups on study Day 1. RB treatment groups received a single IL injection of 0.1 mL RB in saline; the injection control group received a single IL injection of 0.1 mL saline. Growth control and sham treatment groups received no injection. All dosing was performed on Study Day 1. Follow up examination of the mice was conducted at regular intervals, and the test terminated on either Study day 65 or Study Day 85.
# Each animal was euthanized when its A375 neoplasm reached a size of 2.0 g.
# Treatment was assessed for occurrence of complete tumor regression (CR), partial tumor regression (PR) or stable disease (SD). The duration of CR, PR, or SD response was recorded throughout each study.
# The Log-Rank test was used to determine the statistical significance of any difference in survival experienced between treatment and control groups. […] SigmaStat 3.0 (SPSS Inc) was used for all statistical analysis. Graphs were prepared using sigmaStat 3.0 or sigma Plot 2000 (SPSS Inc.) ver 6.00.
# [6] = 25 evaluable target lesions at final follow up
# [7] = analysed per patient, 11 patients
# [8] = larger lesions receiving 0.2 mL or greater doses of RB
smiles,measurement,setting,value
"O=C([O-])c1c(Cl)c(Cl)c(Cl)c(Cl)c1-c1c2cc(I)c(=O)c(I)c-2oc2c(I)c([O-])c(I)cc12.[Na+].[Na+] [RB, 4,5,6,7-Tetrachloro-2′,4′,5′,7′-tetraiodofluorescein]",tumors fully ablated,"Murine Hepa 1-6 tumors; 3 days post injection, 10/group",IL RB fully ablated 8/10 tumors 3
same,partial responses (number of tumors),Murine Hepa 1-6 tumors; large tumors,responses were seen in 2 large
same,excretion,[1]; bile,rapidly excreted from the bile in unmetabolized form
same,removal from the blood,[1]; blood,almost exclusively removed from the blood by the liver
same,% Partitioning in Octanol,[2]; 0.00% saline,75.79 ± 1.75%
same,% Partitioning in Octanol,[2]; 0.50% saline,95.13 ± 1.43%
same,% Partitioning in Octanol,[2]; 0.90% saline,98.52 ± 0.26%
same,% Partitioning in Octanol,[2]; 2.50% saline,99.35 ± 0.28%
same,Kp,[2]; 0.00% saline,3.14 ± 0.29
same,Kp,[2]; 0.50% saline,20.8 ± 6.77
same,Kp,[2]; 0.90% saline,68.2 ± 4.43
same,Kp,[2]; 2.50% saline,215 ± 105
same,Kp,[2]; […] saline,44.2 ± 5.52
same,% Partitioning in Octanol,[2]; […] saline,97.77 ± 0.25%
same,"objective response rate (ORR), target lesions",[3]; [6],48%
same,"target lesions with complete response (CR), RECIST",[3]; [6],36%
same,target lesions with partial response (PR),[3]; [6],12%
same,target lesions with progressive disease,[3]; [6],24%
same,target lesions with stable disease,[3]; [6],28%
same,"CR, non-target lesions individually",[3]; 26 evaluable nontarget lesions,15%
same,"ORR, non-target lesions individually",[3]; 26 evaluable nontarget lesions,27%
same,"PD, non-target lesions individually",[3]; 26 evaluable nontarget lesions,52%
same,"PR, non-target lesions individually",[3]; 26 evaluable nontarget lesions,12%
same,"CR, overall response per patient",[3]; [7],27%
same,"ORR, overall response per patient",[3]; [7],55%
same,"PR, overall response per patient",[3]; [7],27%
same,"progressive disease (PD), overall response per patient",[3]; [7],18%
same,"stable disease (SD), overall response per patient",[3]; [7],27%
same,CR,[3]; [8],62%
same,PR,[3]; [8],8%
same,successful chemoablation (CR + PR),[3]; [8],~70%
same,ORR of nontarget lesions,[3]; patients with a negative lesion response,0%
same,ORR of nontarget lesions,[3]; patients with a positive objective response of target lesions,44%
same,"CR, non-target lesions per patient",[3]; per patient basis,9%
same,"ORR, non-target lesions per patient",[3]; per patient basis,27%
same,"PD, non-target lesions per patient",[3]; per patient basis,27%
same,"PR, non-target lesions per patient",[3]; per patient basis,18%
same,Subsequent status,"[3]; per patient, some had subsequent other treatment",Alive at 34; also recorded: Dead at 12; also recorded: Dead at 9; also recorded: Alive at 31; also recorded: Alive at 27; also recorded: Dead at 8; also recorded: Alive at 28; also recorded: Alive at 29; also recorded: Alive at 30
same,adverse effects,[3]; single IL treatment,generally mild and transient
same,solution stability,[4]; RB solutions within the therapeutic amounts,stable
same,RB concentration that can be achieved,[4]; in 0.9% saline,up to 45%
same,uptake into cancer cells versus normal cells,cancer cells,preferential uptake into cancer cells
same,tumors completely ablated,MCF-7 [ER+] tumors,"[ER+] (4/4), MCF-7 [ER−] (4/4),"
same,tumor growth response,[5]; 0.1% RB (Group C),qualitatively and statistically equivalent to the control groups
same,#CR,"[5]; 0.1% RB, 5 mg/kg, IL, N=5",0
same,#PR/SD,"[5]; 0.1% RB, 5 mg/kg, IL, N=5",0
same,#CR + #PR/SD (%),"[5]; 0.1% RB, 5 mg/kg, IL, N=5",0 (0)
same,MST ± SEM (mean survival time to 2.0 g tumor),"[5]; 0.1% RB, 5 mg/kg, IL, N=5",27.0 ± 3.0 (5) days
same,clinical response of tumors,"[5]; 1% RB and higher, large fraction of tumors",localized tumor necrosis with rapid eschar formation
same,#CR,"[5]; 1% RB, 50 mg/kg, IL, N=12",1
same,#PR/SD,"[5]; 1% RB, 50 mg/kg, IL, N=12",1
same,#CR + #PR/SD (%),"[5]; 1% RB, 50 mg/kg, IL, N=12",2 (17)
same,MST ± SEM (mean survival time to 2.0 g tumor),"[5]; 1% RB, 50 mg/kg, IL, N=12",33.1 ± 4.5 (10) days
same,composite response (damage+necrosis/2) and mean severity of necrosis of tumor tissue,"[5]; 1%, 3% and 6% RB treatment groups",elevated
same,#CR,"[5]; 3% RB, 150 mg/kg, IL, N=17",3
same,#PR/SD,"[5]; 3% RB, 150 mg/kg, IL, N=17",3
same,#CR + #PR/SD (%),"[5]; 3% RB, 150 mg/kg, IL, N=17",6 (35)
same,MST ± SEM (mean survival time to 2.0 g tumor),"[5]; 3% RB, 150 mg/kg, IL, N=17",50.0 ± 7.0 (11) days
same,survival versus growth controls,"[5]; 6% RB (N=6), increased survival",not statistically different
same,#CR,"[5]; 6% RB, 300 mg/kg, IL, N=6",1
same,#PR/SD,"[5]; 6% RB, 300 mg/kg, IL, N=6",0
same,#CR + #PR/SD (%),"[5]; 6% RB, 300 mg/kg, IL, N=6",1 (17)
same,MST ± SEM (mean survival time to 2.0 g tumor),"[5]; 6% RB, 300 mg/kg, IL, N=6",35.4 ± 6.6 (5) days
same,#CR,"[5]; 10% RB, 500 mg/kg, IL, N=5",1
same,#PR/SD,"[5]; 10% RB, 500 mg/kg, IL, N=5",1
same,#CR + #PR/SD (%),"[5]; 10% RB, 500 mg/kg, IL, N=5",2 (40)
same,MST ± SEM (mean survival time to 2.0 g tumor),"[5]; 10% RB, 500 mg/kg, IL, N=5",52.2 ± 14.9 (3) days
same,systemic toxicity,"[5]; all tumour treatments, IL",well-tolerated
same,tolerability of intralesional injection,[5]; concentrations up to 10% (500 mg/kg),well tolerated by all animals
same,residual RB in perilesional tissue,[5]; terminal sacrifice,no residual RB
same,histology of tumor and peritumor tissue,"[5]; terminal sacrifice, no dose-related trends",minimal perilesional inflammation and damage
